From patent publication US20140005163A1 (NOVARTIS AG, priority 2010, published 2014)

Columns and labels:
[1] = molecular target: T1, mTOR (Homo sapiens, UniProt P42345); experiment: Biochemical assay for m-TOR by TR-FRET; settings: 8 μM ATP, 400 nM GFP-4EBP1, 0.5 nM mTOR
T1 construct: purchased Invitrogen Corporation (Carlsbad/CA, USA) PV4753
Summary of the method: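 mTOR (0.5 nM) was incubated at rt with ATP (8 μM final) and GFP-4EBP1 (400 nM final) in 50 mM HEPES pH 7.5, 10 mM MnCl2, 50 mM NaCl, 1 mM EGTA, 1 mM DTT. EDTA stop with Tb3+-anti-p4EBP1 [pThr46] antibody (0.5 nM); TR-FRET read 15 min later.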

[2] = molecular target: T2, PI3K beta (Homo sapiens, UniProt P42338); experiment: PI3K beta kinase assay (Kinase-Glo luminescence); assay type: biochemical
T2 construct: for the full-length p110-b subunit are generated and fused by overlapping PCR; p85(iSH2) fusion partner (see partner chain) (N); His tag (C); made in house; host or cells: baculovirus; Tn5 (Trichoplusia ni) or TiniPro insect cells
Summary of the method: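 p110β full-length/p85 iSH2 construct (BV-949), 25 nM, with 1 μM ATP and 10 μg/mL phosphatidylinositol in 10 mM Tris pH 7.5, 3 mM MgCl2, 50 mM NaCl, 0.05% CHAPS, 1 mM DTT. 60 min at room temperature; ATP remaining read by Kinase-Glo luminescence. IC50 from 8-point four-parameter logistic fit.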

[3] = molecular target: T3, PI3K alpha (Homo sapiens, UniProt P42336); experiment: PI3K alpha kinase assay (Kinase-Glo luminescence); assay type: biochemical
T3 construct: p85(iSH2) fusion partner (see partner chain) (N); His tag (C); made in house; host or cells: baculovirus; Tn5 (Trichoplusia ni) or TiniPro insect cells
Summary of the method: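 PI3K alpha at 10 nM with 1 μM ATP and 10 μg/mL phosphatidylinositol in 10 mM TRIS pH 7.5, 3 mM MgCl2, 50 mM NaCl, 0.05% CHAPS, 1 mM DTT, 60 min at room temperature. Remaining ATP read by Kinase-Glo luminescence. IC50 by 4-parameter fit over 8 concentrations.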

T1 sequence (P42345 1360-2549 limits assumed): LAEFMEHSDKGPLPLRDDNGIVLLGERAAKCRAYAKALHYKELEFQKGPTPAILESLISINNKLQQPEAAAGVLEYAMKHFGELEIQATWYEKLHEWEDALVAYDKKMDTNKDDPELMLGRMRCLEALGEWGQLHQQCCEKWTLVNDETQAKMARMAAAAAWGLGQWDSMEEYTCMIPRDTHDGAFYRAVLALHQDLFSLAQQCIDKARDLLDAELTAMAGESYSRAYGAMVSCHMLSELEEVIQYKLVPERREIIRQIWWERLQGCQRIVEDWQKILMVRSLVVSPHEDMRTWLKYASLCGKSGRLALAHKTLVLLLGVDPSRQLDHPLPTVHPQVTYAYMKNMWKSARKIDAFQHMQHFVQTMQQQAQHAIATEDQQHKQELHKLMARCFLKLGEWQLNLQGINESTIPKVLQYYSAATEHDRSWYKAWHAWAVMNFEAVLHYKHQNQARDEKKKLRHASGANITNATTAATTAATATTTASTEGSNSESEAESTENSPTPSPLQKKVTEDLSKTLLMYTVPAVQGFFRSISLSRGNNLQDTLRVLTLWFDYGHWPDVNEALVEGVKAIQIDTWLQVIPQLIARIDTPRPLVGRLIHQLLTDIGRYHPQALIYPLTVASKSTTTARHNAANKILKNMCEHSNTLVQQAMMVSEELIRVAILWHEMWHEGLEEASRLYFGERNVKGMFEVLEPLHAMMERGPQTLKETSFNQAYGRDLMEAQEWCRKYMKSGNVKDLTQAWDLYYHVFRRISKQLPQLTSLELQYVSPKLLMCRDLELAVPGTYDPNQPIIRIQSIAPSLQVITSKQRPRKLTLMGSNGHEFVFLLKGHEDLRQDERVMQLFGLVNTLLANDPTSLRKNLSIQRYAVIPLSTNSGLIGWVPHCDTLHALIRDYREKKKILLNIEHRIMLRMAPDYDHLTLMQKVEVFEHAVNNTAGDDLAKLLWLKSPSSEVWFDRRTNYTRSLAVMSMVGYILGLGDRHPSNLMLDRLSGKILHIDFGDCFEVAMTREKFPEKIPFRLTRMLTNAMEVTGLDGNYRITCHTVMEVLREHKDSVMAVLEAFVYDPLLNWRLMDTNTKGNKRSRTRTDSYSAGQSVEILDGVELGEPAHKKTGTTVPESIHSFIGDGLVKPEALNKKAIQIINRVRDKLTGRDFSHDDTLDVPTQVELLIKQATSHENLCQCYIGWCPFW
T3 sequence (P42336 with tags, fused parts or gaps limits assumed): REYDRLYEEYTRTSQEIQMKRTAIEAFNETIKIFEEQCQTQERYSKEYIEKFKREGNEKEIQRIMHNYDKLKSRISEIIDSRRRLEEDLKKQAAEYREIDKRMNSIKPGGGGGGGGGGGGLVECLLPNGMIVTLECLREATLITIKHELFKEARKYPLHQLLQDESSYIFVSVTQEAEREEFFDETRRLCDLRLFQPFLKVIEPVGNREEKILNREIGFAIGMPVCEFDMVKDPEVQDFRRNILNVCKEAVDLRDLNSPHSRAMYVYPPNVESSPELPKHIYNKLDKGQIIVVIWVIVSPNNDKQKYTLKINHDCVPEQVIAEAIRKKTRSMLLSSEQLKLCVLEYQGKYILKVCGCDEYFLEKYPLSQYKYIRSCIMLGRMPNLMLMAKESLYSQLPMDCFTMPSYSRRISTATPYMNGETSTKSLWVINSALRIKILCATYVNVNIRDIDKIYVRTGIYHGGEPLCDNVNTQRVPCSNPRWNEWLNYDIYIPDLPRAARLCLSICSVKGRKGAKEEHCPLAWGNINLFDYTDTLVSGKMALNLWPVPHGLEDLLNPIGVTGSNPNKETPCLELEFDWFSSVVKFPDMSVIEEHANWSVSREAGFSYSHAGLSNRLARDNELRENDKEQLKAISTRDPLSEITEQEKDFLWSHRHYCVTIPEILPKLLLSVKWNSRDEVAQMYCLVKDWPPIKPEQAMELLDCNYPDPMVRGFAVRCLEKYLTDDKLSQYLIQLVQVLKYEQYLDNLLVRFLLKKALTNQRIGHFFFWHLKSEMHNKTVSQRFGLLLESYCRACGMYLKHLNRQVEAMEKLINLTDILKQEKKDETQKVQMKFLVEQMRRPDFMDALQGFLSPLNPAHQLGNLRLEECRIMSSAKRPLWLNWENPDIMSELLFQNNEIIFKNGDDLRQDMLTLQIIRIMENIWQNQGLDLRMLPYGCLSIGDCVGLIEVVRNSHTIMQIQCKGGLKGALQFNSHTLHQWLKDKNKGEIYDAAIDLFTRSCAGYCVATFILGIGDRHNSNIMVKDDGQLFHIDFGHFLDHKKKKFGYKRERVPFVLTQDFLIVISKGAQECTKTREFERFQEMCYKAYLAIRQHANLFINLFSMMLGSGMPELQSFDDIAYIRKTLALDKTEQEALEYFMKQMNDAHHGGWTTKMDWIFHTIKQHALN
T2 sequence (P42338 with tags, fused parts or gaps limits assumed): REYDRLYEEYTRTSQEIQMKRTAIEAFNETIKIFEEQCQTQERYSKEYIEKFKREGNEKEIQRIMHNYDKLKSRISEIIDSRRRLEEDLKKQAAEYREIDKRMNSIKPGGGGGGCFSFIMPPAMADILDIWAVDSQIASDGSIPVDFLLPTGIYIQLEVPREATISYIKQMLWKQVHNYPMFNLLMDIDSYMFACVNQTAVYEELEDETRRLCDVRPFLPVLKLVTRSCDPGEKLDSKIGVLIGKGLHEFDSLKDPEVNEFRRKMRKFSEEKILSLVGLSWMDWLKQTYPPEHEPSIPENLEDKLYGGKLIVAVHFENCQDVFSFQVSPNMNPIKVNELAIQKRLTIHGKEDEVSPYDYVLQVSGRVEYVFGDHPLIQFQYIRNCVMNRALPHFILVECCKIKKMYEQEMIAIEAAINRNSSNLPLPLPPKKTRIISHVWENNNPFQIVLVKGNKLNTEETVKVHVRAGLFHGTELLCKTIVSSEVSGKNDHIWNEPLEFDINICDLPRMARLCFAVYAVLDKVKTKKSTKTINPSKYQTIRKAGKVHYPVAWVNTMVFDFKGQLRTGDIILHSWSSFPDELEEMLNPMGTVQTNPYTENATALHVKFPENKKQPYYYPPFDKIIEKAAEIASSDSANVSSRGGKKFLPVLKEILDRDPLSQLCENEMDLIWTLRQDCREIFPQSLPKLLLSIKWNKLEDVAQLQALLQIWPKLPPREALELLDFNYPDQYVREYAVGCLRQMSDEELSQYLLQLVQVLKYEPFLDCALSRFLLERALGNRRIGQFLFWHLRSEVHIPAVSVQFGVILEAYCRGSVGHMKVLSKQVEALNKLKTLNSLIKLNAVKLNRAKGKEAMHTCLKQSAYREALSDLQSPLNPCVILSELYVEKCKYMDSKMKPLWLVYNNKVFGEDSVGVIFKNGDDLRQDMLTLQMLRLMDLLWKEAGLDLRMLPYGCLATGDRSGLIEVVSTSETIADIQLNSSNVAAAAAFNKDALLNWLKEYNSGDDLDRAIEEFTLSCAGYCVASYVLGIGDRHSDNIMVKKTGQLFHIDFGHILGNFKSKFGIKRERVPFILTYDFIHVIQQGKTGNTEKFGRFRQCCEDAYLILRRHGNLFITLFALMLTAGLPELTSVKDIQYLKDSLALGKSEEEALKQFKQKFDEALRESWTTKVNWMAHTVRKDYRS

| SMILES | IC50 [1] [nM] | IC50 [2] [nM] | IC50 [3] [nM] |
| --- | --- | --- | --- |
| COc1ccc(-c2ccc3ncc4c(c3c2)n(-c2ccnn2C)c(=O)n4C)cc1OC [Example 1.3, 8-(3,4-Dimethoxy-phenyl)-3-methyl-1-(2-methyl-2H-pyrazol-3-yl)-1,3-dihydro-imidazo[4,5-c]quinolin-2-one] | 132 | 129 | 14 |
| COc1ccc(-c2ccc3ncc4c(c3c2)n(-c2cn(C)nc2C)c(=O)n4C)cc1OC [Example 1.8, 8-(3,4-Dimethoxy-phenyl)-1-(1,3-dimethyl-1H-pyrazol-4-yl)-3-methyl-1,3-dihydro-imidazo[4,5-c]quinolin-2-one] | 6 | 20 | 6 |
| COc1ccc(-c2ccc3ncc4c(c3c2)n(-c2cc(C)nn2C)c(=O)n4C)cn1 [Example 2.3, 1-(2,5-Dimethyl-2H-pyrazol-3-yl)-8-(6-methoxy-pyridin-3-yl)-3-methyl-1,3-dihydro-imidazo[4,5-c]quinolin-2-one] | 96 | 180 | 30 |
| COc1ccc(-c2ccc3ncc4c(c3c2)n(-c2cn(C(C)C)nc2C)c(=O)n4C)cn1 [Example 2.8, 1-(1-Isopropyl-3-methyl-1H-pyrazol-4-yl)-8-(6-methoxy-pyridin-3-yl)-3-methyl-1,3-dihydro-imidazo[4,5-c]quinolin-2-one] | 33 | 109 | 29 |
| CCOc1ccc(-c2ccc3ncc4c(c3c2)n(-c2ccnn2CC)c(=O)n4C)cn1 [Example 3.4, 8-(6-Ethoxy-pyridin-3-yl)-1-(2-ethyl-2H-pyrazol-3-yl)-3-methyl-1,3-dihydro-imidazo[4,5-c]quinolin-2-one] | 161 |  | 217 |
| CCOc1ccc(-c2ccc3ncc4c(c3c2)n(-c2cn(CC)nc2C)c(=O)n4C)cn1 [Example 3.5, 8-(6-Ethoxy-pyridin-3-yl)-1-(1-ethyl-3-methyl-1H-pyrazol-4-yl)-3-methyl-1,3-dihydro-imidazo[4,5-c]quinolin-2-one] | 17 | 340 | 37 |
| CCOc1ccc(-c2ccc3ncc4c(c3c2)n(-c2cnn(C)c2C)c(=O)n4C)cn1 [Example 3.6, 1-(1,5-Dimethyl-1H-pyrazol-4-yl)-8-(6-ethoxy-pyridin-3-yl)-3-methyl-1,3-dihydro-imidazo[4,5-c]quinolin-2-one] | 191 | 477 | 50 |
| Cc1nn(C(C)C)cc1-n1c(=O)n(C)c2cnc3ccc(-c4ccc(N(C)C)nc4)cc3c21 [Example 4.1, 8-(6-Dimethylamino-pyridin-3-yl)-1-(1-isopropyl-3-methyl-1H-pyrazol-4-yl)-3-methyl-1,3-dihydro-imidazo[4,5-c]quinolin-2-one] | 30 | 762 | 60 |
| CCn1cc(-n2c(=O)n(C)c3cnc4ccc(-c5cnc(N(C)C)nc5)cc4c32)c(C)n1 [Example 6.4, 8-(2-Dimethylamino-pyrimidin-5-yl)-1-(1-ethyl-3-methyl-1H-pyrazol-4-yl)-3-methyl-1,3-dihydro-imidazo[4,5-c]quinolin-2-one] | 33 | 495 | 60 |
| CNC(=O)c1ccc(-c2ccc3ncc4c(c3c2)n(-c2cn(C(C)C)nc2C)c(=O)n4C)cn1 [Example 15.3, 5-[1-(1-Isopropyl-3-methyl-1H-pyrazol-4-yl)-3-methyl-2-oxo-2,3-dihydro-1H-imidazo[4,5-c]quinolin-8-yl]-pyridine-2-carboxylic acid methylamide] | 12 | 526 | 123 |
| Cc1nn(C)cc1-n1c(=O)n(C)c2cnc3ccc(-c4ccc(CO)nc4)cc3c21 [Example 16.2, 1-(1,3-Dimethyl-1H-pyrazol-4-yl)-8-(6-hydroxymethyl-pyridin-3-yl)-3-methyl-1,3-dihydro-imidazo[4,5-c]quinolin-2-one] | 23 | 171 | 26 |
| COCCOc1ccc(-c2ccc3ncc4c(c3c2)n(-c2cn(C)nc2C)c(=O)n4C)cn1 [Example 18, 1-(1,3-Dimethyl-1H-pyrazol-4-yl)-8-[6-(2-methoxy-ethoxy)-pyridin-3-yl]-3-methyl-1,3-dihydro-imidazo[4,5-c]quinolin-2-one] | 123 | 252 | 86 |
| CCOc1ccc(-c2ccc3ncc4c(c3c2)n(-c2cn(CC)nc2C)c(=O)n4C)cc1OCC [Example 27.1, 8-(3,4-Diethoxy-phenyl)-1-(1-ethyl-3-methyl-1H-pyrazol-4-yl)-3-methyl-1,3-dihydro-imidazo[4,5-c]quinolin-2-one] | 49 | 122 | 8 |
| CCOc1cc(-c2ccc3ncc4c(c3c2)n(-c2cn(CC)nc2C)c(=O)n4C)ccc1OC [Example 28.1, 8-(3-Ethoxy-4-methoxy-phenyl)-1-(1-ethyl-3-methyl-1H-pyrazol-4-yl)-3-methyl-1,3-dihydro-imidazo[4,5-c]quinolin-2-one] | 16 | 15 | < 3 |
| CCOc1cc(-c2ccc3ncc4c(c3c2)n(-c2c(C)nn(C)c2C)c(=O)n4C)ccc1OC [Example 28.2, 8-(3-Ethoxy-4-methoxy-phenyl)-3-methyl-1-(1,3,5-trimethyl-1H-pyrazol-4-yl)-1,3-dihydro-imidazo[4,5-c]quinolin-2-one] | 549 | 132 | 62 |
| CCOc1cc(-c2ccc3ncc4c(c3c2)n(-c2cn(C)nc2C)c(=O)n4C)ccc1OC [Example 28.3, 1-(1,3-Dimethyl-1H-pyrazo1-4-yl)-8-(3-ethoxy-4-methoxy-phenyl)-3-methyl-1,3-dihydro-imidazo[4,5-c]quinolin-2-one] | 13 | 31 | 13 |
| CCOc1ccc(-c2ccc3ncc4c(c3c2)n(-c2cn(C)nc2C)c(=O)n4C)cc1OC [Example 29.3, 1-(1,3-Dimethyl-1H-pyrazol-4-yl)-8-(4-ethoxy-3-methoxy-phenyl)-3-methyl-1,3-dihydro-imidazo[4,5-c]quinolin-2-one] | 7 | 144 | 11 |
| CCn1cc(-n2c(=O)n(C)c3cnc4ccc(-c5ccc(OCCOC)c(OC)c5)cc4c32)c(C)n1 [Example 30.2, 1-(1-Ethyl-3-methyl-1H-pyrazol-4-yl)-8-[3-methoxy-4-(2-methoxy-ethoxy)-phenyl]-3-methyl-1,3-dihydro-imidazo[4,5-c]quinolin-2-one] | 54 | 239 | 30 |
| Cc1nn(C)cc1-n1c(=O)n(C)c2cnc3ccc(-c4cccc(O)c4)cc3c21 [Example 32.1, 1-(1,3-Dimethyl-1H-pyrazol-4-yl)-8-(3-hydroxy-phenyl)-3-methyl-1,3-dihydro-imidazo[4,5-c]quinolin-2-one] | 28 | 43 | 7 |
| Cc1nn(C)cc1-n1c(=O)n(C)c2cnc3ccc(-c4cccc5c4OC(F)(F)O5)cc3c21 [Example 35, 8-(2,2-Difluoro-benzo[1,3]dioxol-4-yl)-1-(1,3-dimethyl-1H-pyrazol-4-yl)-3-methyl-1,3-dihydro-imidazo[4,5-c]quinolin-2-one] | 51 | 37 | 5 |
| Cc1nn(CC(=O)N(C)C)cc1-n1c(=O)n(C)c2cnc3ccc(-c4ccccc4)cc3c21 [Example 37.3, N,N-Dimethyl-2-[3-methyl-4-(3-methyl-2-oxo-8-phenyl-2,3-dihydro-imidazo[4,5-c]quinolin-1-yl)-pyrazol-1-yl]-acetamide] | 19 |  | 71 |
| Cc1nn(CC(=O)N(C)C)c(C)c1-n1c(=O)n(C)c2cnc3ccc(-c4cncc(OC5CCC5)c4)cc3c21 [Example 60.2, 2-{4-[8-(5-Cyclobutoxy-pyridin-3-yl)-3-methyl-2-oxo-2,3-dihydro-imidazo[4,5-c]quinolin-1-yl]-3,5-dimethyl-pyrazol-1-yl}-N,N-dimethyl-acetamide] | 703 |  | 315 |
| Cc1nn(C)cc1-n1c(=O)n(C)c2cnc3ccc(-c4ccc(-n5cccn5)nc4)cc3c21 [Example 79, 1-(1,3-Dimethyl-1H-pyrazol-4-yl)-3-methyl-8-(6-pyrazol-1-yl-pyridin-3-yl)-1,3-dihydro-imidazo[4,5-c]quinolin-2-one] | < 3 |  | 48 |
| CCN(C)C(=O)Cn1cc(-n2c(=O)n(C)c3cnc4ccc(-c5ccccc5)cc4c32)c(C)n1 [Example 135, N-Ethyl-N-methyl-2-[3-methyl-4-(3-methyl-2-oxo-8-phenyl-2,3-dihydro-imidazo[4,5-c]quinolin-1-yl)-pyrazol-1-yl]-acetamide] | 140 |  | 76 |
| CCN(C)C(=O)Cn1cc(-n2c(=O)n(C)c3cnc4ccc(-c5cnc(N6CCCC6)nc5)cc4c32)c(C)n1 [Example 140.1, N-Ethyl-N-methyl-2-{3-methyl-4-[3-methyl-2-oxo-8-(2-pyrrolidin-1-yl-pyrimidin-5-yl)-2,3-dihydro-imidazo[4,5-c]quinolin-1-yl]-pyrazol-1-yl}-acetamide] | 36 |  | 168 |
